How the values were obtained:
[1] = tested on: human melanoma cells (SkMel28); assay: Clonogenicity assays (two- and three-dimensional colony formation), human melanoma cells; format: cell-based; details: human (metastatic) melanoma cells
From the text: (§1) • Figure 1 A-B. Boyden chamber analysis and representative images (10-fold original magnification) of chemotaxis of human melanoma cells (SkMel28) towards recombinant NPY (lower chamber) with or without application of Y5R specific inhibitor CGP71683 (Y5Ri) (upper chamber) compared to migration towards serum free medium (n = 9). Arrowheads indicate migrated cells. • Figure 2. Representative images of colony number and colony size of human melanoma cells (SkMel28) in clonogenicity assays with application of increasing concentrations of Y5R inhibitor (Y5Ri) (n = 3). • Figure 3. Schematic illustration of the experimental procedure: splenic injection of murine melanoma cells (B16) in C57BL/6 mice on day 0; intraperitoneal injection of Y5R inhibitor CGP71683 (Y5Ri) (15 mg/kg body weight per injection) or solvent only (DMSO) as control on indicated days; end of experiment eight days after cell implantation. • Figure 4. Explanted metastases bearing spleens and livers of DMSO (control) and Y5Ri treated mice after splenic injection of B16 melanoma cells. • Figure 5. Macroscopic classification of livers from DMSO (n = 11) and Y5Ri treated mice (n = 9) into very low / low versus moderate / high liver metastasis. • Figure 6. A. CHK2 level in NPY^-/- mice compared to control WT mice measured by IHC analysis. B. CHK2 level in Y5Ri-treated mice compared to control DMSO-treated mice measured by IHC analysis. • Figure 7. […] A. Quantification of NPY mRNA expression levels in liver tissues from mice treated with control LNPs ("Control", LNPs bearing control siRNA pool, n = 11) and from mice treated with LNPs bearing siRNA pool targeting murine NPY ("LNP-siNPY", n = 11). B. Quantification of NPY protein levels in liver tissues from mice treated with control LNPs (n = 11) and LNP-siNPY treated mice (n = 11). • Figure 9 A-B. ELISA based protein expression analysis of absolute NPY levels in liver tissues and serum samples from LNP-siNPY treated mice (n = 10) compared to mice treated with control LNPs (LNPs bearing control siRNA pool, n = 11) after splenic melanoma cell injection. • Figure 10. […] A. Quantification of number of metastases in liver tissues from LNP-siNPY treated mice (n = 10) compared to mice treated with control LNPs (LNPs bearing control siRNA pool, n = 11). B. Quantification of metastases size in liver tissues from LNP-siNPY treated mice (n = 10) compared to mice treated with control LNPs (LNPs bearing control siRNA pool, n = 11). • Figure 13. […] A. Quantification of pERK protein expression in metastatic liver tissue samples of LNP-siNPY treated mice (n = 6) compared to mice treated with control LNPs (LNPs bearing control siRNA pool, n = 6). […]

[2] = tested on: human melanoma cells (SkMel28); assay: Boyden chamber chemotactic migration, human melanoma cells; format: cell-based; details: for NPY-induced chemotactic migration: melanoma cells, migration towards recombinant NPY, co-treatment with the substance
From the text: as §1

[3] = tested on: CRC, PC and BC cell lines; assay: Clonogenicity assays, CRC, PC and BC cell lines; format: cell-based
From the text: (§2) Normal human epidermal melanocytes (NHEM), the human primary melanoma cell lines Mel Juso, Mel Ei, Mel Wei and metastatic human melanoma cell lines SkMel28 (ATCC CRL-1469™), Mel Im, Mel Ju, SkMel3 (ATCC HTB-69™) were described previously (Jacob et al., 1998; Heimerl et al., 2007). Primary human hepatocytes (PHH) were isolated and cultured as described elsewhere (Dietrich et al., 2017; Lee et al., 2013). In addition, the human breast cancer cell line MCF-7 (ATCC HTB-22™), the human pancreatic cancer cell line Panc-1 (ATCC CRL-1469™) and the human colon cancer cell lines HT29 (ATCC HTB-38™), Caco-2 (ATCC HTB-37™) and LoVo (ATCC CCL-229™) were used. The murine melanoma cell line B16 (ATCC CRL-6475™) was used for in vitro and in vivo studies. Furthermore, the murine pancreatic cancer cell line KPC and the murine colon cancer cell lines MC38 and CT26 (ATCC CRL-2638™) were used. Table 4. Summary and additional information of human and murine cell lines. BC: Breast cancer. CRC: Colorectal cancer. Hetero: Heterozygous genotype. Homo: Homozygous genotype. MET: Metastatic melanoma cell line. MM: Malignant melanoma. Nd: not determined / missing. PC: Pancreatic cancer. PT: Primary tumor melanoma cell line. Peri-tumor: Tumor-surrounding liver tissue. IR: immunoreactivity (score).
As described previously (Dietrich et al., 2017), clonogenic assays were performed to analyze stem cell behavior, attachment dependent colony formation and growth of cancer cells.
Anchorage independent colony formation and growth of cancer cells were analyzed using soft agar colony formation assays as described previously (Borowicz et al., 2014). Treatment with specific agonists and antagonists started 24 h after tumor cell seeding. Treatment was repeated after five and nine days. Microscopic analysis of the obtained colonies was conducted 14 days after tumor cell seeding.

[4] = tested on: CRC, PC and BC cell lines; assay: Boyden chamber NPY-mediated chemotactic migration, CRC, PC and BC cell lines; format: cell-based
From the text: as §2
As described previously (Dietrich et al., 2017), Boyden chamber assays were used in order to analyze cell migration. Boyden chamber filters were additionally coated with Matrigel to analyze cell invasion.

[5] = tested on: B16 melanoma cells (liver metastasis); assay: Spleen-liver metastasis model with Y5R inhibitor treatment; format: in vivo, C57BL/6 mice
From the text: • Figure 1 A-B. Boyden chamber analysis and representative images (10-fold original magnification) of chemotaxis of human melanoma cells (SkMel28) towards recombinant NPY (lower chamber) with or without application of Y5R specific inhibitor CGP71683 (Y5Ri) (upper chamber) compared to migration towards serum free medium (n = 9). Arrowheads indicate migrated cells. • Figure 2. Representative images of colony number and colony size of human melanoma cells (SkMel28) in clonogenicity assays with application of increasing concentrations of Y5R inhibitor (Y5Ri) (n = 3). • Figure 3. Schematic illustration of the experimental procedure: splenic injection of murine melanoma cells (B16) in C57BL/6 mice on day 0; intraperitoneal injection of Y5R inhibitor CGP71683 (Y5Ri) (15 mg/kg body weight per injection) or solvent only (DMSO) as control on indicated days; end of experiment eight days after cell implantation. • Figure 4. Explanted metastases bearing spleens and livers of DMSO (control) and Y5Ri treated mice after splenic injection of B16 melanoma cells. • Figure 5. Macroscopic classification of livers from DMSO (n = 11) and Y5Ri treated mice (n = 9) into very low / low versus moderate / high liver metastasis. • Figure 6. A. CHK2 level in NPY^-/- mice compared to control WT mice measured by IHC analysis. B. CHK2 level in Y5Ri-treated mice compared to control DMSO-treated mice measured by IHC analysis. • Figure 7. Schematic illustration of the experimental procedure: pre-treatment of C57BL/6 mice with lipid nanoparticles (LNP) bearing control siRNA pool or siNPY pool (pool of siRNAs targeting murine NPY) one day before surgery (day -1); splenic injection of murine melanoma cells (B16) on day 0; intraperitoneal injection of LNPs with control siRNA pool or siNPY pool as indicated; end of experiment six days after cell implantation. • Figure 8. A. Quantification of NPY mRNA expression levels in liver tissues from mice treated with control LNPs ("Control", LNPs bearing control siRNA pool, n = 11) and from mice treated with LNPs bearing siRNA pool targeting murine NPY ("LNP-siNPY", n = 11). B. Quantification of NPY protein levels in liver tissues from mice treated with control LNPs (n = 11) and LNP-siNPY treated mice (n = 11). • Figure 9 A-B. ELISA based protein expression analysis of absolute NPY levels in liver tissues and serum samples from LNP-siNPY treated mice (n = 10) compared to mice treated with control LNPs (LNPs bearing control siRNA pool, n = 11) after splenic melanoma cell injection. • Figure 10. […] A. Quantification of number of metastases in liver tissues from LNP-siNPY treated mice (n = 10) compared to mice treated with control LNPs (LNPs bearing control siRNA pool, n = 11). B. Quantification of metastases size in liver tissues from LNP-siNPY treated mice (n = 10) compared to mice treated with control LNPs (LNPs bearing control siRNA pool, n = 11). • Figure 13. […] A. Quantification of pERK protein expression in metastatic liver tissue samples of LNP-siNPY treated mice (n = 6) compared to mice treated with control LNPs (LNPs bearing control siRNA pool, n = 6). B. Quantification of pCHK2 protein expression in metastatic liver tissue samples of LNP-siNPY treated mice (n = 6) compared to samples from control treatment (control siPool bearing LNPs) (n = 6). • Figure 15. […]

metastatic CRC organoids = assay: Ki67 expression in metastatic CRC organoids; format: cell-based, murine; details: vs controls
Method: Murine APTAK organoids were used for in vitro and in vivo experiments. These APTAK tumor organoids are deficient in Apc, Tp53, Tgfbr2 and express constitutively activated Kras and activated Akt1. Organoids were generated and CRC models were conducted in a similar way as previously described (Heichler et al., 2020). In an orthotopic mouse model for CRC and CRC (liver) metastasis, single cell suspensions from genetically engineered APTAK organoids were injected into the submucosa of wildtype mice.
Immunohistochemistry (IHC) and immunofluorescence analyses were performed using tissue microarrays consisting of human cancer tissue samples and mouse paraffin-embedded tissue sections as described previously (Dietrich et al., 2017; Dietrich et al., 2020). […] For each antibody, immunohistochemistry staining was evaluated semi-quantitatively and scores were calculated as described previously (Dietrich et al., 2017; Dietrich et al., 2020).

pCHK2 = pCHK2 levels in melanoma cells in vitro; format: cell-based; details: (metastatic) melanoma cells in vitro
Method: As described in detail in previous studies (Dietrich et al., 2017), Western blots and densitometric quantification were performed using the following primary antibodies: anti-β-actin antibody (catalog no. A1978, Sigma-Aldrich; 1 in 5,000 dilution), anti-phospho-ERK antibody (catalog no. #9101, Cell Signaling, Frankfurt am Main, Germany; 1 in 4,000 dilution), anti-ERK antibody (catalog no. #9102, Cell Signaling; 1 in 1,000 dilution), anti-phospho-AKT antibody (catalog no. #9271, Cell Signaling, Frankfurt am Main, Germany; 1 in 2000 dilution), anti-AKT (catalog no. #9272, Cell Signaling, Frankfurt am Main, Germany; 1 in 2000 dilution), anti-Y5R antibody (catalog no. ab133757, Abcam; 1 in 30,000 dilution), anti-phospho-Chk2 antibody (catalog no. #2661, Cell Signaling, Frankfurt am Main, Germany; 1 in 1000 dilution), anti-phospho-p53 antibody (catalog no. #9284, Cell Signaling, Frankfurt am Main, Germany; 1 in 1000 dilution).

Structure (SMILES)	clonogenicity [1]	NPY-induced chemotactic migration [2]	clonogenicity ([3]; CRC cells)	clonogenicity ([3]; PC and BC cell lines)	NPY-mediated chemotactic migration ([4]; CRC cells)	NPY-mediated chemotactic migration ([4]; PC and BC cell lines)	chemotactic migration induced by hepatocyte-derived, NPY-containing supernatants or by liver lysates from wildtype mice ([2]; concomitant Y5R-inhibition)	clonogenicity ([3]; CRC, PC and BC cell lines)	liver transaminases ([5]; mice, 15 mg/kg i.p. every 24 h)	cleaved caspase 3 expression in liver metastatic cells ([5]; mice, IHC)	liver metastasis ([5]; splenic injection of B16 cells, 15 mg/kg i.p. every 24 h, vs vehicle control)	pCHK2 in liver metastasis ([5]; treated mice vs controls, IHC (Figure 6B))	Ki67 expression in liver metastasis ([5]; treated vs control-treated mice, IHC)	Ki67 expression (metastatic CRC organoids)	pCHK2 levels (pCHK2)
CC(=O)O[C@H]1[C@H]2O[C@]23[C@@H]2CC[C@@H]4C[C@@H](O)CC[C@]4(C)[C@H]2CC[C@]3(C)[C@H]1c1ccc(=O)oc1 [Cinobufagin]	strongly reduced clonogenicity														
NC(=O)NCc1ccc(CNC(=O)[C@@H](CCCN=C(N)N)NC(=O)C(c2ccccc2)c2ccccc2)cc1 [Y1Ri]	not affected	not altered	did not affect	did not affect clonogenicity	did not affect	sufficient to reduce NPY-mediated chemotactic migration									
N=C(N)NCCC[C@H](NC(=O)CC1(CC(=O)N2CCN(C3c4ccccc4NC(=O)c4ccccc43)CC2)CCCC1)C(=O)NCCn1c(=O)n(-c2ccccc2)n(-c2ccccc2)c1=O (stereo partly drawn) [Y2Ri]	not affected	not altered	did not affect	did not affect clonogenicity	did not affect	not affected									
Nc1nc(NC[C@H]2CC[C@H](CNS(=O)(=O)c3cccc4ccccc34)CC2)nc2ccccc12 [Y5Ri, N-[[trans-4-[[(4-amino-2-quinazolinyl)amino]methyl]cyclohexyl]methyl]-1-naphthalenesulfonamide]	strongly reduced clonogenicity	antagonized NPY-induced chemotactic migration					significantly reduced	confirmed	did not affect	only slightly, however not significantly, enhanced	significantly reduced liver metastasis	significant induction	significantly reduced	significantly reduced Ki67 expression	induced pCHK2

Source: patent EP4595966A1, “USE OF NPY/Y5R INHIBITOR IN TREATING LIVER METASTASIS” (Friedrich-Alexander-Universität Erlangen-Nürnberg, priority 2024, dated 2025)
